Measurements: ChEMBL document CHEMBL3758125 (J Med Chem, 2016)
Active and inactive are the calls of the source. The calls are words filed in the database; no cut-off is given here.

Legend:
[1] = target: T1, Cannabinoid receptor 1 (Homo sapiens, UniProt P21554); assay: Negative allosteric modulator activity at human CB1R expressed in CHO-K1 cells assessed as inhibition of CP55,940-induced beta-arrestin recruitment preincubated for 30 mins followed by CP55,940 addition measured for 90 mins by PathHunter assay; assay type: cell-based
[2] = target: T1, Cannabinoid receptor 1; assay: Negative allosteric modulator activity at human CB1R expressed in CHO-K1 cells assessed as effect on CP55,940-induced inhibition of forskolin-induced cAMP accumulation preincubated for 30 mins followed by CP55,940 addition measured for 30 mins by HitHunter assay relative to control; assay type: functional, cell-based
[3] = target: T1, Cannabinoid receptor 1; assay: Negative allosteric modulator activity at human CB1R expressed in CHO-K1 cells assessed as inhibition of CP55,940-induced beta-arrestin recruitment preincubated for 30 mins followed by CP55,940 addition measured for 90 mins by PathHunter assay relative to control; assay type: cell-based
[4] = target: T1, Cannabinoid receptor 1; assay: Selectivity index, ratio of EC50 for human CB1R by cAMP assay to EC50 for human CB1R by beta-arrestin recruitment assay; assay type: functional, single protein
[5] = target: T1, Cannabinoid receptor 1; assay: Negative allosteric modulator activity at human CB1R expressed in CHO-K1 cells assessed as effect on CP55,940-induced inhibition of forskolin-induced cAMP accumulation preincubated for 30 mins followed by CP55,940 addition measured for 30 mins by HitHunter assay; assay type: functional, cell-based
[6] = target: T1, Cannabinoid receptor 1; assay: Agonist activity at human CB1R expressed in CHO-K1 cells assessed as inhibition of CP55,940-induced [35S]GTPgammaS binding up to 1 uM preincubated for 60 mins prior to [35S]GTPgammaS addition by liquid scintillation spectrometric analysis; assay type: functional, cell-based
[7] = target: Cannabinoid receptor 1 (Mus musculus) (UniProt P47746); assay: Inverse agonist activity at CB1R in mouse brain membranes assessed as [35S]GTPgammaS binding at 100 nM and 1 uM preincubated for 60 mins prior to [35S]GTPgammaS addition by liquid scintillation spectrometric analysis; assay type: functional, cell membranes; details: Membrane
[8] = target: Cannabinoid receptor 1 (Mus musculus) (UniProt P47746); assay: Negative allosteric modulator activity at CB1R in mouse brain membranes assessed as Emax for CP55,940-induced [35S]GTPgammaS binding at 1 uM preincubated for 60 mins prior to [35S]GTPgammaS addition by liquid scintillation spectrometric analysis relative to control (reference value: […]%); assay type: functional, cell membranes; details: Membrane
[9] = target: Cannabinoid receptor 1 (Mus musculus) (UniProt P47746); assay: Agonist activity at CB1R in mouse brain membranes assessed as [35S]GTPgammaS binding at 100 nM and 1 uM preincubated for 60 mins prior to [35S]GTPgammaS addition by liquid scintillation spectrometric analysis; assay type: functional, cell membranes; details: Membrane
[10] = target: T1, Cannabinoid receptor 1; assay: Positive allosteric modulator activity at human CB1R expressed in HEK293 cell membranes assessed as enhanced binding of [3H]CP55,940 at 500 nM by liquid scintillation spectrometric analysis; details: TDE = time-dependent effect
[11] = target: Cannabinoid receptor 1 (Mus musculus) (UniProt P47746); assay: Activity at CB1R in mouse brain membranes assessed as inhibition of CP55,940-induced [35S]GTPgammaS binding at 100 nM and 1 uM preincubated for 60 mins prior to [35S]GTPgammaS addition by liquid scintillation spectrometric analysis relative to control; assay type: functional, cell membranes; details: Membrane
[12] = target: Cannabinoid receptor 1 (Mus musculus) (UniProt P47746); assay: Negative allosteric modulator activity at CB1R in mouse brain membranes assessed as inhibition of CP55,940-induced [35S]GTPgammaS binding at 100 nM and 1 uM preincubated for 60 mins prior to [35S]GTPgammaS addition by liquid scintillation spectrometric analysis; assay type: functional, cell membranes; details: Membrane
[13] = target: T1, Cannabinoid receptor 1; assay: Positive allosteric modulator activity at human CB1R expressed in CHO cells assessed as enhanced binding of [3H]CP55,940 after 60 mins by liquid scintillation spectrometric analysis relative to control; assay type: cell-based
[14] = target: T1, Cannabinoid receptor 1; assay: Activity at human CB1R expressed in HEK293 cell membranes assessed as reduction in binding of [3H]CP55,940 at 500 nM after 90 to 120 mins by liquid scintillation spectrometric analysis
[15] = target: T1, Cannabinoid receptor 1; assay: Inverse agonist activity at human CB1R expressed in CHO-K1 cells assessed as inhibition [35S]GTPgammaS binding up to 1 uM preincubated for 60 mins prior to [35S]GTPgammaS addition by liquid scintillation spectrometric analysis; assay type: functional, cell-based
[16] = target: T1, Cannabinoid receptor 1; assay: Positive allosteric modulator activity at human CB1R expressed in CHO cells assessed as enhanced binding of [3H]CP55,940 after 60 mins by liquid scintillation spectrometric analysis; assay type: cell-based
[17] = target: T1, Cannabinoid receptor 1; assay: Positive allosteric modulator activity at human CB1R expressed in HEK293 cell membranes assessed as enhanced specific binding of [3H]CP55,940 at 500 nM pre-incubated for 60 mins before [3H]CP55,940 addition followed by drug wash-out by liquid scintillation spectrometric-based saturation binding assay
[18] = target: Cannabinoid receptor 1 (Mus musculus) (UniProt P47746); details: Brain, Membrane, at 100 nM
[19] = target: T1, Cannabinoid receptor 1; assay: Inverse agonist activity at human CB1R expressed in CHO-K1 cells assessed as [35S]GTPgammaS binding at 10 uM preincubated for 60 mins prior to [35S]GTPgammaS addition by liquid scintillation spectrometric analysis; assay type: functional, cell-based
[20] = target: Cannabinoid receptor 1 (Mus musculus) (UniProt P47746); assay: Antagonist activity at CB1R in mouse brain membranes assessed as inhibition of CP55,940-induced [35S]GTPgammaS binding at 1 uM preincubated for 60 mins prior to [35S]GTPgammaS addition by liquid scintillation spectrometric analysis; assay type: functional, cell membranes; details: Membrane

T1 sequence (P21554 whole entry): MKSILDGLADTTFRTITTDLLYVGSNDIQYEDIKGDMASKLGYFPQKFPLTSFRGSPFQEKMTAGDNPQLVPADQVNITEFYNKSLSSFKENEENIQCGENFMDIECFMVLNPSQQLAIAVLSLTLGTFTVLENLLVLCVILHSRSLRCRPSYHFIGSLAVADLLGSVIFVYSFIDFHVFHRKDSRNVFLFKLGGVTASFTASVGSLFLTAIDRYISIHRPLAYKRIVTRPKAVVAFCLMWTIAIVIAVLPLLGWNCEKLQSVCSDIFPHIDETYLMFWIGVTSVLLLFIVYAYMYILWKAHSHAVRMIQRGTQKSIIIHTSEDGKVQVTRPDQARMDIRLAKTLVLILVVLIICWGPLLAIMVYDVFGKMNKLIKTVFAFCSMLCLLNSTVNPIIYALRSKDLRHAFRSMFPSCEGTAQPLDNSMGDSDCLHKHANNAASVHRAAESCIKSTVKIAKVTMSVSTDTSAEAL
Sequence of Cannabinoid receptor 1 (Mus musculus) (P47746 whole entry): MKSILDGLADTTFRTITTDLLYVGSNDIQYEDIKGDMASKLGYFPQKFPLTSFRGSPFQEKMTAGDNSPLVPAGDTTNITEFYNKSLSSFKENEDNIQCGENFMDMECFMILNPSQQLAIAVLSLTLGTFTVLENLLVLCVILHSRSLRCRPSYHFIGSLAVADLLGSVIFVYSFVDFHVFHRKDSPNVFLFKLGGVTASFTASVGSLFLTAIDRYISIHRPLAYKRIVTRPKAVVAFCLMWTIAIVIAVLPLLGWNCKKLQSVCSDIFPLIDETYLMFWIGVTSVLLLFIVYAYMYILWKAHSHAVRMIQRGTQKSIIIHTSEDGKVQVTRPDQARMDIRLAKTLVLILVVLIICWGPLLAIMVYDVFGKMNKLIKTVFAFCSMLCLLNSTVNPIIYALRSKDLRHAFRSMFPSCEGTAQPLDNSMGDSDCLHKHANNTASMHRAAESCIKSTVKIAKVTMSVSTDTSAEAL

Compound | EC50 [1] [nM] | Emax [2] [%] | Emax [3] [%] | Ratio EC50 [4] | EC50 [5] [nM] | Emax [13] [%] | other results
O=C(Nc1ccc(N=C=S)cc1)Nc1cccc(-c2cccc(N3CCCC3)n2)c1 | 42.9 | 78.2 | 106 | 3 | – | – | –
[N-]=[N+]=Nc1ccc(NC(=O)Nc2cccc(-c3cccc(N4CCCC4)n3)c2)cc1 | 28.2 | 103 | 105 | 3 | 166 | – | –
O=C(NCCc1ccc(N2CCCCC2)cc1)c1[nH]c2ccc(Cl)cc2c1CCN=C=S | 209 | -8.84 | 107 | 14 | > 10000 | – | –
CCc1c(C(=O)NCCc2ccc(N3CCCCC3)cc2)[nH]c2ccc(N=[N+]=[N-])cc12 | – | 87.1 | 105 | 14 | – | – | –
[N-]=[N+]=NCCc1c(C(=O)NCCc2ccc(N3CCCCC3)cc2)[nH]c2ccc(Cl)cc12 | – | 96.8 | 105 | 14 | 1120 | – | –
CCc1c(C(=O)NCCc2ccc(N3CCCCC3)cc2)[nH]c2ccc(N=C=S)cc12 | 2.09 | 111 | 103 | 14 | 174 | 116 | Activity [6]: inactive; Activity [7]: inactive; Emax [8]: 11.2%; Activity [9]: inactive; Activity [10]: tde; Emax [11]: 87.8%; inhibition [12]: Dose-dependent effect; inhibition [14]: Active; Activity [15]: inactive; EC50 [16]: 19.6 nM; fold change (FC) [17]: 2.25; Emax [18]: 71.7%
O=C(Nc1ccc(C(=O)c2ccccc2)cc1)Nc1cccc(-c2cccc(N3CCCC3)n2)c1 | 683 | 28.1 | 77.4 | 3 | > 10000 | – | –
O=C(Nc1ccc(Cl)cc1)Nc1cccc(-c2cccc(N3CCCC3)n2)c1 | – | 115 | 106 | – | – | – | –
CCCCCCC(C)(C)c1ccc([C@@H]2C[C@H](O)CC[C@H]2CCCO)c(O)c1 | – | – | – | – | – | -90.1 | –
CCc1c(C(=O)NCCc2ccc(N3CCCCC3)cc2)[nH]c2ccc(Cl)cc12 | 9.05 | 78.1 | 105 | – | 324 | 109 | Emax [8]: 32.4%; Activity [19]: Active; inhibition [20]: Active; EC50 [16]: 83 nM; Activity [17]: inactive
